The values that follow come from patent US6902903B1, “Helicobacter pylori diagnostics” (Chiron Corporation, priority 1996, dated 2005).

Where two headings read alike, the source gives them in different places.

The subject of assay [1] is H. pylori antibodies in serum sample. Put plainly: H. pylori strip immunoblot assay (SIA), band reactivity of immobilized antigens with serum samples. Format: binding, human. Also on record: key: band intensity 0 to 4+ vs IgG controls (low IgG = 1+, high = 3+). As to the method:
A. An SIA was done as follows. An H. pylori extract containing a mixture of antigens including type-common antigens was obtained from Bioseed, Inc., Hillsborough, Calif. Briefly, the extract was prepared from an H. pylori bacterium obtained from the American Type Culture Collection (ATCC) having an ATCC strain designation of ATCC 43504. The extract was prepared using detergent extraction and sonication.
The VacA and CagA type-specific antigens, described in Examples 1 and 2, respectively, were applied in discrete bands to nitrocellulose strips at concentrations of 1-2 μg/ml. The lysate including the type-common antigens was coated as another discrete band at a concentration of 0.5-1 μg/ml onto the same nitrocellulose strips. As internal controls, additional bands contained purified human IgG at a low (100-185 ng/ml) and high (500-925 ng/ml) concentration. Other strips were coated with the antigens and lysate as described above, however, on these strips, the lysate was first enhanced with the VacA and CagA antigens added to the lysate at a concentration of 0.5-1 μg/ml (VacA) and 0.5-μg/ml (CagA). FIG. 1 is a diagram of a nitrocellulose strip with the antigens as described above.
For the immunoblot assay, strips were processed in a batch fashion with 30 strips per batch. All steps were performed at room temperature. Each strip was numbered and then placed in a separate tube to which was added 1 ml of diluent (phosphate-buffered saline (PBS) with bovine protein stabilizers and detergents, 0.1% sodium azide and 0.05% gentamicin sulfate as preservatives) and 30 μl of a serum sample from an individual known to be infected with H. pylori Type I, suspected of being infected with H. pylori Type I or a control subject, was applied. The tubes were rocked gently for 4 h, the solution removed by aspiration, and 1 ml of fresh diluent was added to each tube. The tubes were rocked for 30 minutes, the solution removed by aspiration and 1 ml of wash buffer made from wash buffer concentrate (50×) (phosphate-buffered detergent solution with 0.01% thimerosal as a preservative) was added to each tube. The contents of each tube were emptied into a single wash vessel and the strips were washed by swirling for 20 seconds. The wash buffer was decanted and 30 ml of fresh buffer added and the process repeated. Residual solution was removed by aspiration and 20 ml of conjugate solution (peroxidase-labeled goat anti-human IgG (heavy and light chains), with bovine protein stabilizers, containing 0.01% thimerosal as a preservative) was added. The vessel was rotated at 110 rpm for 10 minutes, the conjugate solution was decanted and the wash step was repeated three times. Residual solution was again removed by aspiration and 20 ml of substrate/developer (4-chloro-1-napthol in methanol/phosphate-buffered hydrogen peroxide) added, followed by rotation for 15-20 minutes at 110 rpm. The solution was decanted and the strips were washed twice in distilled water. Developed strips were placed face up on absorbent paper and allowed to dry for 30 minutes in the dark. Strips were then read within 3 h of drying. The intensity of the color of the H. pylori antigen bands were assigned values ranging from −(0) to 4+using the following algorithm. The low IgG band is assigned a value of 1+, the high IgG band is assigned a value of 3+. The lysate and VacA and CagA bands are then scored from 0 to 4+according to how their band intensity compares to that of the IgG control bands.
Samples with any of the H. pylori antigen bands scoring 1+ or greater to the lysate band are considered to be positive for H. pylori infection. Reactivity of 1+ or greater to the lysate band, in addition to reactivity of 1+ or greater to the CagA and/or VacA band, is considered positive for H. pylori Type I infection. Samples showing no reactivity of 1+ or greater to any bands are considered negative. […]

For assay [2], the system named is H. pylori infection. Nature of the assay: Antibiotic therapy of H. pylori infection, response monitored by SIA. Format: in vivo, Helicobacter pylori. The settings on record: individuals undergoing antibiotic regimen, determined with the SIA. As to the method: For the immunoblot assay, strips were processed in a batch fashion with 30 strips per batch. All steps were performed at room temperature. Each strip was numbered and then placed in a separate tube to which was added 1 ml of diluent (phosphate-buffered saline (PBS) with bovine protein stabilizers and detergents, 0.1% sodium azide and 0.05% gentamicin sulfate as preservatives) and 30 μl of a serum sample from an individual known to be infected with H. pylori Type I, suspected of being infected with H. pylori Type I or a control subject, was applied. The tubes were rocked gently for 4 h, the solution removed by aspiration, and 1 ml of fresh diluent was added to each tube. The tubes were rocked for 30 minutes, the solution removed by aspiration and 1 ml of wash buffer made from wash buffer concentrate (50×) (phosphate-buffered detergent solution with 0.01% thimerosal as a preservative) was added to each tube. The contents of each tube were emptied into a single wash vessel and the strips were washed by swirling for 20 seconds. The wash buffer was decanted and 30 ml of fresh buffer added and the process repeated. […] Strips were then read within 3 h of drying. […] The lysate and VacA and CagA bands are then scored from 0 to 4+according to how their band intensity compares to that of the IgG control bands. […]

For assay [3], the system named is H. pylori infection. Conditions: individuals undergoing antibiotic regimen for H. pylori infection; cited from earlier work.
In assay [4] the test system is antibodies to CagA. Conditions: cited from earlier work.
The mark [5] stands for this setting: Responder to antibiotic therapy, Prebleed.

Turning to “VacA: Recombinant 71.2 kDa fusion: 154 aa human SOD, five aa linker, VacA Gly-311 through Ile-819 of H. pylori CCUG17874”, the “Band reactivity (intensity value), therapy monitoring” value (shortened to “Band reactivity (intensity value)”) in assay [1] (Non-Responder, 8 M) was determined as 2.49; in assay [1] (Non-Responder, 16 M) it was 2.10; in assay [1] (Non-Responder, Prebleed) it was 2.54; in assay [1] (setting [5]), 0.31; in assay [1] (Responder, 1 M) it was 0.26; in assay [1] (Responder, 3 M), 0.33. Besides, the “Band reactivity (intensity value)” value in assay [1] (Responder, 6 M) came out at 0.29; in assay [1] (Responder, 9 M), 0.21; in assay [1] (Responder, 12 M), 0.18.

As for `Cc1ncc([N+](=O)[O-])n1CCO` [Single, Metronidazole], in assay [2], the “% Responders by SIA” value was determined as 20% and the “Responders (responders/tested) by SIA” value is on record as 1/5. Also, in assay [3], the “Response Rate Reported” value was 19%.

B1: CagA: Recombinant truncated CagA of 268 amino acids, 29.2 kDa, Glu-748 through Glu-1015, H. pylori strain Chetx-1 (protein, listed as Helicobacter pylori)
chain: MEFKNGKNKDFSKVTQAKSDLENSIKDVIFNQKITDKVDDLNQAVSVAKATGDFSRVEQALADLKNFSKEQLAQQAQKNESLNAGKKSEIYQSVKNGVNGTLVGNGLSQAEATTLSKNFSDIKKELNAKLFGNFNNNNNNGLKNSTEPIYAKVNKKKTGQVASPEEPIYTQVAKKVNAKIDRLNQIASGLGGVGKAAGFPLKRHDKVDDLSKVGRSVSPEPIYATIDDLGGPFPLKRHDKVDDLSKVGLSRNQELAQKIDNLNQAVSE
For the molecule B1, the “Band reactivity (intensity value)” value is 0.99 in assay [1] (Non-Responder, 8 M); 0.90 in assay [1] (Non-Responder, 16 M); 1.31 in assay [1] (Non-Responder, Prebleed); 1.92 in assay [1] (setting [5]); 1.69 in assay [1] (Responder, 1 M); 1.09 in assay [1] (Responder, 3 M). Moreover, the “Band reactivity (intensity value)” value in assay [1] (Responder, 6 M) was found to be 0.90; in assay [1] (Responder, 9 M), 0.73; in assay [1] (Responder, 12 M) it was 0.43. Also, the “patients CagA seropositive” value in assay [4] (patients suffering from gastric ulcer) is on record as “more than 70%”; in assay [4] (patients with duodenal ulcer or duodenitis) it was “more than 95%”.
